In one assay the target is T1, Protein skinhead-1 (Caenorhabditis elegans, UniProt P34707).
T1 sequence (P34707 whole entry): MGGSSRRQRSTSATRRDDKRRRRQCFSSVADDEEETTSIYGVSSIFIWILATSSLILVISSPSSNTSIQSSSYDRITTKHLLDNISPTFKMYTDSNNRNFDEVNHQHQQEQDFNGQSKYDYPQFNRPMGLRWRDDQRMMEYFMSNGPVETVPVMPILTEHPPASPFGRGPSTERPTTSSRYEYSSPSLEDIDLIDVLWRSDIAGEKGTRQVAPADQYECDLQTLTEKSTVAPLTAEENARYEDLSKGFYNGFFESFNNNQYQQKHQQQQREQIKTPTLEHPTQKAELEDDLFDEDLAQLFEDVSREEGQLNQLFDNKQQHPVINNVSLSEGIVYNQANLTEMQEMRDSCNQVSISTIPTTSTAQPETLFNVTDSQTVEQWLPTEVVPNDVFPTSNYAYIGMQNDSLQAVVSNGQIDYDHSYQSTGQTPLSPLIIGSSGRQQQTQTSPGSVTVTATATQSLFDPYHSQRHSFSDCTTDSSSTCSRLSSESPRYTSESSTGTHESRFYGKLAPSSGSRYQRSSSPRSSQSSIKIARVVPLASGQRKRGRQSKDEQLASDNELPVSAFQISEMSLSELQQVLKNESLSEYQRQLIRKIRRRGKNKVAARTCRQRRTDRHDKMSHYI
In kind it is functional.

A short description of assay [1]: cells. In kind it is functional.
For assay [2], the target named is Glucose-6-phosphate 1-dehydrogenase (Homo sapiens, UniProt P11413). As to the kind of experiment: inhibition of Homo sapiens G6PD, dose series – biochemical, fluorescence, selectivity assay for P. falciparum G6PD inhibitor project, dose response (AID 504792). In kind it is functional.
Assay [3] concerns the target T2, Polyadenylate-binding protein 1 (Homo sapiens, UniProt P11940). As to the kind of experiment: MLLE binding blockers, Cy5 peptide tracer – biochemical, fluorescence polarization, Cy5-PAM2 peptide, secondary, miRNA deadenylation inhibitor project, dose response (AID 602260). In kind it is functional. The following applies: read-out: IC50_Mean. On the technique in general: In fluorescence polarisation assays a small probe gives low polarisation when free and higher when bound to something large.

Assay [4] deals with T2, Polyadenylate-binding protein 1. Put plainly: MLLE domain peptide-binding blockers, IC50 – biochemical, fluorescence polarization, FITC-PAM2 peptide, dose response (AID 602259). In kind it is functional. The following applies: read-out: IC50_Mean.
Assay [5] addresses T3, Histone-lysine N-methyltransferase NSD2 (Homo sapiens, UniProt O96028).
T3 sequence (O96028 whole entry): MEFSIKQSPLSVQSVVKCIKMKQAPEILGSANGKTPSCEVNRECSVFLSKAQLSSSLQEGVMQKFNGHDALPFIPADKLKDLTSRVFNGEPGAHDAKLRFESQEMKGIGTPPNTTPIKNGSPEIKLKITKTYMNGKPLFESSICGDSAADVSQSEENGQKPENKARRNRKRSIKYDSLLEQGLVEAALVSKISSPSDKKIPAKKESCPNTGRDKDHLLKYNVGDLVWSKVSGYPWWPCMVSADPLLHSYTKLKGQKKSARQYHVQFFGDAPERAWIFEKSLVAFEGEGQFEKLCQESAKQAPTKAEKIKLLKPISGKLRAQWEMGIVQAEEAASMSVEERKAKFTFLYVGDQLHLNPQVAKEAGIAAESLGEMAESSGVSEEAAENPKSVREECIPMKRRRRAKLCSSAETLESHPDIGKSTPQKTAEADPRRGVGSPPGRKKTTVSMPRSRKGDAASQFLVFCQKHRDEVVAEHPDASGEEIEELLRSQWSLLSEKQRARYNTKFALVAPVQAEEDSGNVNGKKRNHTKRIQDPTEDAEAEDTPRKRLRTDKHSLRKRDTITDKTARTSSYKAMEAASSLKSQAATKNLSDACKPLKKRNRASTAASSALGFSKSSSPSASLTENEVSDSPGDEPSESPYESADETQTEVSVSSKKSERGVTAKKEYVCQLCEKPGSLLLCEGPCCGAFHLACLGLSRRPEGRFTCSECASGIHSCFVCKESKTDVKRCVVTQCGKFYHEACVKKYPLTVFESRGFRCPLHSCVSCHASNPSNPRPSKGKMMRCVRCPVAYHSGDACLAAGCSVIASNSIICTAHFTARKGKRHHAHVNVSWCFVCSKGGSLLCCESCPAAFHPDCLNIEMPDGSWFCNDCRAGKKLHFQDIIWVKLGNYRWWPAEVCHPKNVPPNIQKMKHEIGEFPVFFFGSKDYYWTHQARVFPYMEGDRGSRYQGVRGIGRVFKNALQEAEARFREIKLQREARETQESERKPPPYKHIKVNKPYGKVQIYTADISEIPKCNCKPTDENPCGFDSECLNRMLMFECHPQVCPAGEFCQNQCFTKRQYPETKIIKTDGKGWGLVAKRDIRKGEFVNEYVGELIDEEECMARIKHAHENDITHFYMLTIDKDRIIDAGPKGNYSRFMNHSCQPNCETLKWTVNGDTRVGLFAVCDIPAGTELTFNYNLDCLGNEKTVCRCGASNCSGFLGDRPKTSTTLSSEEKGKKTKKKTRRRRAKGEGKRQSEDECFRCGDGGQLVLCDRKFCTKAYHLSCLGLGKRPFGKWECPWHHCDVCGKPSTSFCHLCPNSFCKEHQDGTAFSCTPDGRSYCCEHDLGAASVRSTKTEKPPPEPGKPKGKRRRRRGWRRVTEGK
In kind it is biochemical.

Assay [6] deals with T4, Microphthalmia-associated transcription factor (Homo sapiens, UniProt O75030).
T4 sequence (O75030 whole entry): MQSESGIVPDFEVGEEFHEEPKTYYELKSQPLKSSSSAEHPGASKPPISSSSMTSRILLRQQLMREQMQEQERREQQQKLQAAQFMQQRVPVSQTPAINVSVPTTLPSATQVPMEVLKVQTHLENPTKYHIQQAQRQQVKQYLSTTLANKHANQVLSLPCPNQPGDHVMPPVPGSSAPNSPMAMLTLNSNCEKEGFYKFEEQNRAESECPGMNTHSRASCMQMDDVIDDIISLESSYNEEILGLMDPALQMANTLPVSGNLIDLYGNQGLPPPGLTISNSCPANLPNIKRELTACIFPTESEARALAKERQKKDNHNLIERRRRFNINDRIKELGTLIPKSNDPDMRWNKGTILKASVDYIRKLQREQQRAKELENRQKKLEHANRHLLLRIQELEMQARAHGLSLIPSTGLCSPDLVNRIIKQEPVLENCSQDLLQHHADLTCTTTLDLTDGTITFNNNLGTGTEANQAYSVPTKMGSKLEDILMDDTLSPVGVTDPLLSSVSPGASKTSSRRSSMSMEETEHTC
As to the kind of experiment: reducers of TRPM1 reporter luminescence, concentration series – cell-based, SK-MEL-5, cherry-picked, set 3, MITF inhibitor project, dose response (AID 493073).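 Also: SK-MEL-5 melanoma cells with luciferase driven by the MITF target TRPM1 promoter.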 In kind it is functional.

Assay [7] is described as follows: cells. In kind it is functional, cell-based.
A short description of assay [8]: cells. In kind it is functional, cell-based. The source holds these as a separate data set.
Assay [9] concerns the target T5, Replicative DNA helicase DnaB (Mycobacterium tuberculosis, UniProt P9WMR3).
T5 sequence (P9WMR3 whole entry): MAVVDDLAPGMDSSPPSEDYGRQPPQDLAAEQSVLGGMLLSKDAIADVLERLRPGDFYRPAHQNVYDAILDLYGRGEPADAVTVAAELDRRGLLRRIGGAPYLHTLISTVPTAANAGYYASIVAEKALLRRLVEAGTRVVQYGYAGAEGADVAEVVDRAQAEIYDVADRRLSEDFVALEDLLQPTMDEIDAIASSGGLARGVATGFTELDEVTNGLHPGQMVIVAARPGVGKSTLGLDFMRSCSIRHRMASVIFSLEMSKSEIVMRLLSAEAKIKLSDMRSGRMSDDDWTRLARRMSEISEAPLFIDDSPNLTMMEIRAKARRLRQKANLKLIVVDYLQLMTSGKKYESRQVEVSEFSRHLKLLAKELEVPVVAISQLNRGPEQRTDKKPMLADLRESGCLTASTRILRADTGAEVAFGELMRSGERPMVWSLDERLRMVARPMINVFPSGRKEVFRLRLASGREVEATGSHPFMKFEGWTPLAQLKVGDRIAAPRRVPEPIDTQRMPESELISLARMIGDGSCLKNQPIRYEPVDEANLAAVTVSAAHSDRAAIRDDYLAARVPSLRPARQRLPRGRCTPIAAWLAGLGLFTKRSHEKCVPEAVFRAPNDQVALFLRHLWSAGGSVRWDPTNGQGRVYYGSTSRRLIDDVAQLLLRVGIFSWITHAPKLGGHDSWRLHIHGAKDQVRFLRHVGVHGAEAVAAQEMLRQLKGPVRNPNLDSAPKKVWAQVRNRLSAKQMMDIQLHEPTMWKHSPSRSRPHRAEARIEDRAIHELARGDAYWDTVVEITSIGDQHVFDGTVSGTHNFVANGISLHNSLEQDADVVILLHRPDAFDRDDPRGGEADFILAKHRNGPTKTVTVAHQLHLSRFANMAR
Put plainly: DnaB intein splicing inhibitors, dose response, biochemical, cell-free fluorescence (AID 449749). In kind it is functional.

The next assay has as its target T6, Protein RecA (Mycobacterium tuberculosis, UniProt P9WHJ3).
T6 sequence (P9WHJ3 whole entry): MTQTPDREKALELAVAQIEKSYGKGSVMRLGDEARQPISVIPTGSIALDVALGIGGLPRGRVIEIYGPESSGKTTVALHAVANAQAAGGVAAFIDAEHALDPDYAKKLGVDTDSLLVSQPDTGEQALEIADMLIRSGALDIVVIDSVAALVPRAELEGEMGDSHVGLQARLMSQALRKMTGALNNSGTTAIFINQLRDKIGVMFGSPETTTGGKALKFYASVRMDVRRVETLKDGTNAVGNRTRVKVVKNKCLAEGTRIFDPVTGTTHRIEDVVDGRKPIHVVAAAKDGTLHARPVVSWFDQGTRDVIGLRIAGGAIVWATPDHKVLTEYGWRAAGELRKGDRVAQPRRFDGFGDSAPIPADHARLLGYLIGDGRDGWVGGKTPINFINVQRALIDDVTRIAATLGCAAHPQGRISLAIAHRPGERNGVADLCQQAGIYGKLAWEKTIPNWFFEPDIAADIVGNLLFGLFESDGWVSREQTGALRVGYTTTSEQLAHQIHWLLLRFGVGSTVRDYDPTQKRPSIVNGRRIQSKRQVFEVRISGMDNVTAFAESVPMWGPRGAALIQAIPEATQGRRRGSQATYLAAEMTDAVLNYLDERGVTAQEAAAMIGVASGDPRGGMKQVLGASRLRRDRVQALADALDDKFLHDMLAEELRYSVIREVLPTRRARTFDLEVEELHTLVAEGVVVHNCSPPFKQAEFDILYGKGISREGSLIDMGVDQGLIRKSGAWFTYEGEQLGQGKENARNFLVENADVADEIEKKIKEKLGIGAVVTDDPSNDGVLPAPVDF
As to the kind of experiment: Fluorescence Cell-Free Homogeneous Dose Retest to Identify Inhibitors of RecA-Intein Splicing Activity. [Related pubchem assays (depositor defined):AID2097, AID2223, AID489010, AID492950]. In kind it is functional.

A short description of assay [10]: viability loss in HeLa cells – cytotoxicity control for MgcRacGAP inhibitor project, dose response (AID 624300). In kind it is functional.
Assay [11] can be described thus: Trypanosoma cruzi growth suppression in host cells – NIH3T3 host cells, beta-gal luminescence, confirmation (AID 2044).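 Also: intracellular parasites grown in NIH/3T3 mouse fibroblasts as host cells; luminescent beta-galactosidase reporter signal from transgenic T. cruzi replicating inside host cells; inhibitors lower the luminescence signal.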 In kind it is functional, cell-based.
Assay [12] is described as follows: NIH3T3 cell viability loss – ATP luminescence, mouse fibroblasts, counter-screen, dose response (AID 2010).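 Also: cells exposed to compound for about 90 hours before reading.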 In kind it is functional, cell-based. In general terms: The purpose of a counterscreen is to sort out artefacts and off-target activity.
The nature of assay [13]: Luminescence Cell-Based Dose Retest to Confirm Inhibitors of Cancer Stem Cells. [Related pubchem assays (depositor defined):AID2717, AID2721]. In kind it is functional. The following applies: Homo sapiens.

SMILES strings stand for the structures. Calls of active or inactive are those of the source.

T2 sequence (P11940 whole entry): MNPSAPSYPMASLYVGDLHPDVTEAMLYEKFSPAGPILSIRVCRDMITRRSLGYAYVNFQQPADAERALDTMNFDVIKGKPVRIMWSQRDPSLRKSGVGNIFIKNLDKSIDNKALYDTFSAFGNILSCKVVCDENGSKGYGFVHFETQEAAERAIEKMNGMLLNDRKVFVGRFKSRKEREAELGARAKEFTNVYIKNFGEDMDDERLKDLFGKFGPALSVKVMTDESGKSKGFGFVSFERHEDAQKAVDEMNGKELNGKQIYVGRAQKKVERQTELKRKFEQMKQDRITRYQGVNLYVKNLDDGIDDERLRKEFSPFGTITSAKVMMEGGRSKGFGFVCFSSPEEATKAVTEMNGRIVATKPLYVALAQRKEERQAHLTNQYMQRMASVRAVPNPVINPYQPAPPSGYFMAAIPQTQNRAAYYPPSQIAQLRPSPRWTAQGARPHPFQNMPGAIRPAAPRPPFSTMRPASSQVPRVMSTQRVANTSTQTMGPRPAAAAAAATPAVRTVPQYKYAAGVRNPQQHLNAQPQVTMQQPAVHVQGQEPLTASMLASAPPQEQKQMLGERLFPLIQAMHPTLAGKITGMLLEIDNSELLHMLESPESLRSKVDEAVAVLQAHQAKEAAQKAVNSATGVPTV
Sequence of Glucose-6-phosphate 1-dehydrogenase (P11413 whole entry): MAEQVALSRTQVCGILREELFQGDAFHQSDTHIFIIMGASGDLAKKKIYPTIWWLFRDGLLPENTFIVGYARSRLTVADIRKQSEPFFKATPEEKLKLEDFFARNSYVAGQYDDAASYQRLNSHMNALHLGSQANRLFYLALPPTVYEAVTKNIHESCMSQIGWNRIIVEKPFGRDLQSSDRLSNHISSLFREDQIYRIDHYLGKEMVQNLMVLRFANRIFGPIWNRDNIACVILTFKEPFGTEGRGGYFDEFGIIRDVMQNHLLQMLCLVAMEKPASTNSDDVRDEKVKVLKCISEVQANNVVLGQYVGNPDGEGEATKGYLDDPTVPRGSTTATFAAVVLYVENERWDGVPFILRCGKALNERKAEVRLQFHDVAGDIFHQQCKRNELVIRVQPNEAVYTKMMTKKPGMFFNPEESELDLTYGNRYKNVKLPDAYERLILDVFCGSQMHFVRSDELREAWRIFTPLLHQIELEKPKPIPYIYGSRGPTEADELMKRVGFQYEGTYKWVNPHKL

In the case of `O=C(O)CCc1ccc(-c2ccccc2)n1NC(=O)c1ccco1`, on Protein skinhead-1, the IC50 was > 100 µM (inactive). With `Cc1ccc(-c2nnc(SCC#CCOC(=O)c3ccco3)o2)cc1`, the IC50 in “cells [1]” is 4.78 µM (active). For the compound `COc1ccc(C2(CNC(=O)c3ccc(OC)c([N+](=O)[O-])c3)CCCCC2)cc1OC`, the IC50 in [2] is 60.7 µM (inactive). Broadly, the AC50 is the concentration at which the activity in the assay is half-maximal. On to `CN(C=[N+](C)C)c1cccc2c1C(=O)c1ccccc1C2=O`, for which the results for the IC50 in [3] and in assay [4] were > 66 µM (inactive) and 58.5 µM (inactive), respectively. The AC50 in assay [5] was > 20 µM (inactive).

For the compound `CN(C)c1ccc(C=c2c3ccccc3n3c2c2ccccc2[n+]3C)cc1`, in assay [2], the IC50 is > 80 µM (inactive). As for `CCCCCn1nnc2c(=O)oc3ccccc3c21`, the IC50 in the assay “cells [1]” was 2.67 µM (active). For the compound `COc1ccc(CC(=O)Nc2cc(S(=O)(=O)N3CCOCC3)ccc2N2CCOCC2)cc1`, the IC50 at Protein skinhead-1 was > 100 µM (inactive).

On to `CCN(CC)CCCNC(=O)C1CCN(C(=O)c2oc3cc4sc(N(C)C)nc4cc3c2C)CC1`, for which the AC50 in assay [5] was > 20 µM (inactive).

With `Cc1cnc(NC(=O)c2nn(C)cc2[N+](=O)[O-])s1`, the AC50 in assay [6] is 20.6 µM (active). `O=C(NC(c1ccc(-c2ccccc2)cc1)c1cnccn1)C1CCN(Cc2cccs2)CC1` (stereo not drawn): the IC50 on Protein skinhead-1 was > 100 µM (inactive). As a reminder, the EC50 is the concentration giving half of the maximal effect. As to `CC(C)=N/N=C(\N)SCc1ccccc1`, the IC50 in the assay “cells [7]” is > 29.9 µM (inactive). For the same compound, the EC50 in “cells [8]” is > 29.9 µM (inactive).

For the compound `N#C/C(=C\c1ccc(F)cc1)c1nc(-c2ccco2)cs1`, on Protein skinhead-1, the IC50 was > 100 µM (inactive). Regarding `Brc1ccc(-c2csc(-c3ccncc3)n2)cc1`, the IC50 at Protein skinhead-1 was 51.6 µM (inactive). In general, CC50 refers to the concentration at which the toxic effect on the cells reaches its halfway point. With `CCN(Cc1ccccc1)C(c1ccc(C)cc1)c1nnnn1C(C)(C)CC` (stereo not drawn), the AC50 in assay [9] is 2.41 µM (active). Besides, on Protein RecA, the EC50 is > 380 µM (inactive). The CC50 in assay [10] is 100 µM (active). As to `Cc1ccc2sc(N(CCCN(C)C)C(=O)c3ccc(S(=O)(=O)N(C)C4CCCCC4)cc3)nc2c1C`, the results for the EC50 in [11] and in assay [12] were 148 nM (active) and 10.3 µM (active), respectively. Moreover, the AC50 in assay [13] was 3.72 µM (active); in assay [6], 18 µM (active).

These data come from ChEMBL document CHEMBL1201862, “PubChem BioAssay data set” (2004).
